Results as given in patent publication US4200635A, “Antibacterially active amides” (Beecham Group Limited, priority 1977, dated 1980).
In brackets after ≈: the same amount, converted by molar mass. Like-named read-outs stand apart in the source and are kept apart here.

What was measured:
[1] = system: Haemophilus influenzae Q1; assay: MIC, serial dilution in nutrient agar, human bacteria; type: cell-based; details: nutrient agar containing 5% chocolated horse blood
[2] = system: Haemophilus influenzae Wy21; assay: as above; type: cell-based
[3] = system: Neisseria catarrhalis 1502; assay: as above; type: cell-based
Bacillus subtilis 6633 = assay: as above; type: cell-based
Staph. aureus Oxford = assay: as above; type: cell-based; details: Staphylococcus aureus
Staph. aureus Russell = assay: as above; type: cell-based; details: Staphylococcus aureus
Strep. pneumoniae CN33 = assay: as above; type: cell-based; details: Streptococcus pneumoniae
Bord. bronchiseptica BO9 = assay: MIC, veterinary bacteria; type: cell-based; details: Bordetella bronchiseptica
Past. multocida PAI = assay: MIC, veterinary bacteria; type: cell-based; details: Pasteurella multocida
Past. haemolytica PA5 = assay: MIC, veterinary bacteria; type: cell-based; details: Mannheimia haemolytica
Staph. aureus B4 = assay: MIC, veterinary bacteria; type: cell-based; details: Staphylococcus aureus
Staph. aureus 152 = assay: MIC, veterinary bacteria; type: cell-based; details: Staphylococcus aureus
Strep. uberis SPU 1 = assay: MIC, veterinary bacteria; type: cell-based; details: Streptococcus uberis, SPU1
[4] = system: Strep. dysgalactiae SPD 1; assay: MIC, veterinary bacteria; type: cell-based; details: Streptococcus dysgalactiae, SPD1
M. suipneumoniae Str. 11 = assay: in vitro MIC, anti-mycoplasmal activity; type: cell-based; details: Mesomycoplasma hyopneumoniae, Friis' broth, microtiter method
M. dispar H225 = assay: in vitro MIC, anti-mycoplasmal activity; type: cell-based; details: M. dispar H225; Friis' broth, microtiter method; read-out: M.I.C.
From the text: (§1) Tables 3 and 4 show the in vitro MIC values (μg/ml) of the compounds of Examples 1 to 9 against a number of mycoplasma organisms, determined in Friis' broth using the microtiter method.

M. dispar NCTC 10125 = assay: in vitro MIC, anti-mycoplasmal activity; type: cell-based; details: Friis' broth, microtiter method
From the text: as §1

M. fermentans MWKL4 = assay: in vitro MIC, anti-mycoplasmal activity; type: cell-based; details: Mycoplasmopsis fermentans, Friis' broth, microtiter method
From the text: as §1

M. pneumoniae ATCC 15492 = assay: in vitro MIC, anti-mycoplasmal activity; type: cell-based; details: Mycoplasmoides pneumoniae, ATCC15492, Friis' broth, microtiter method
From the text: as §1

M. pulmonis JB = assay: in vitro MIC, anti-mycoplasmal activity; type: cell-based; details: Mycoplasmopsis pulmonis, Friis' broth, microtiter method
From the text: as §1

[5] = system: M. suipneumoniae J2206/183b; assay: in vitro MIC, anti-mycoplasmal activity; type: cell-based; details: Mesomycoplasma hyopneumoniae, Friis' broth, microtiter method
From the text: as §1

M. pneumoniae 427a = assay: in vitro MIC, anti-mycoplasmal activity; type: cell-based; details: Mycoplasmoides pneumoniae, Friis' broth, microtiter method
Mouse blood levels = type: in vivo, male albino mice, CS1 strain; details: for concentration at 5 min / concentration at 10 min / concentration at 20 min / concentration at 0.5 h / concentration at 1 h / half-life: blood, sc, 50 mg/kg subcutaneous; for concentration at 5 min: 5 minutes after dosing; for concentration at 5 min / concentration at 10 min / concentration at 20 min / concentration at 0.5 h / concentration at 1 h: mean of 5 experiments, assay Neisseria catarrhalis, read-out: Concentration (blood level); for concentration at 10 min: 10 minutes after dosing; for concentration at 20 min: 20 minutes after dosing; for concentration at 0.5 h: 30 minutes after dosing; for concentration at 1 h: 60 minutes after dosing
Method: The blood levels of the 5-ethoxycarbonylpentyl amide of monic acid A were measured after subcutaneous dosing to male albino mice.
Species: Albino male mice 18-22 g CS1 strain.
Routes: Subcutaneous and oral.
Dose: 50 mg/kg. This compound was supplied as an oil. It was administered as a solution in 10% DMF v/v in PBS or water.
Assay: Neisseria catarrhalis, immediate assay of samples.

[6] = system: Pasteurella multocida 1633; assay: MIC, serial dilution in nutrient agar, human bacteria; type: cell-based; details: nutrient agar containing 5% chocolated horse blood
[7] = Bacillus subtilis 6633, nutrient agar containing 5% chocolated horse blood, read-out: M.I.C.
[8] = Staph. aureus Oxford, nutrient agar containing 5% chocolated horse blood, read-out: M.I.C.
[9] = Staph. aureus Russell, nutrient agar containing 5% chocolated horse blood, read-out: M.I.C.
[10] = Strep. pneumoniae CN33, nutrient agar containing 5% chocolated horse blood, read-out: M.I.C.
[11] = Bord. bronchiseptica BO9, read-out: M.I.C.
[12] = Past. multocida PAI, read-out: M.I.C.
[13] = Past. haemolytica PA5, read-out: M.I.C.
[14] = Staph. aureus B4, read-out: M.I.C.
[15] = Strep. uberis SPU 1, read-out: M.I.C.
[16] = Strep. dysgalactiae SPD 1, read-out: M.I.C.
[17] = Neisseria catarrhalis 1502, nutrient agar containing 5% chocolated horse blood, read-out: M.I.C.

Structure (SMILES)	MIC [1]	MIC ([3]; Neisseria, 1502)	MIC (Bacillus subtilis 6633; [7])	MIC (Staph. aureus Oxford; [8])	MIC (Staph. aureus Russell; [9])	MIC (Bord. bronchiseptica BO9; [11])	MIC (Past. multocida PAI; [12])	MIC (Past. haemolytica PA5; [13])	MIC (Staph. aureus B4; [14])	MIC (Staph. aureus 152)	MIC (Strep. uberis SPU 1; [15])	MIC [4, 16]	MIC (M. suipneumoniae Str. 11)	MIC (M. dispar H225)	MIC (M. dispar NCTC 10125)	MIC (M. fermentans MWKL4)	MIC (M. pulmonis JB)	MIC [5]	MIC (M. pneumoniae 427a)	MIC [6]	other results
CCOC(=O)CCCCCNC(=O)C=C(C)CC1OCC(CC2OC2C(C)C(C)O)C(O)C1O (centres unmarked) [Example 5, 5-Ethoxycarbonylpentylamide of monic acid A]	0.05 µg/mL (≈ 0.103 µM)	0.05 µg/mL (≈ 0.103 µM)	10 µg/mL (≈ 20.6 µM)	25 µg/mL (≈ 51.5 µM)	50 µg/mL (≈ 103 µM)	23 µg/mL (≈ 47.4 µM)	0.35 µg/mL (≈ 0.721 µM)	11 µg/mL (≈ 22.7 µM)	11 µg/mL (≈ 22.7 µM)	45 µg/mL (≈ 92.7 µM)	0.35 µg/mL (≈ 0.721 µM)	0.7 µg/mL (≈ 1.44 µM)	1.25 µg/mL (≈ 2.57 µM)	0.312 µg/mL (≈ 0.642 µM)	0.156 µg/mL (≈ 0.321 µM)	0.039 µg/mL (≈ 0.0803 µM)	< 0.02 µg/mL	2.5 µg/mL (≈ 5.15 µM)	> 10 µg/mL		MIC ([2]; Haemophilus influenzae Wy21, nutrient agar containing 5% chocolated horse blood, read-out: M.I.C.): 0.5 µg/mL (≈ 1.03 µM); MIC (Strep. pneumoniae CN33; [10]): 1 µg/mL (≈ 2.06 µM); MIC (M. pneumoniae ATCC 15492): 10 µg/mL (≈ 20.6 µM); concentration at 5 min (Mouse blood levels): 22100 ng/mL; concentration at 10 min (Mouse blood levels): 22600 ng/mL; concentration at 20 min (Mouse blood levels): 16100 ng/mL; concentration at 0.5 h (Mouse blood levels): 9100 ng/mL; concentration at 1 h (Mouse blood levels): < 4000 ng/mL; half-life (Mouse blood levels): 15 min; blood levels compared with pseudomonic acid (Mouse blood levels; subcutaneous dosing): higher and more prolongued than those obtained after subcutaneous dosing of pseudomonic acid
COC(=O)CCCCCCCCNC(=O)C=C(C)CC1OCC(CC2OC2C(C)C(C)O)C(O)C1O (centres unmarked) [Example 7, 8-Methoxycarbonyloctylamide of monic acid A]	0.5 µg/mL (≈ 0.973 µM)	0.1 µg/mL (≈ 0.195 µM)			25 µg/mL (≈ 48.7 µM)	2 µg/mL (≈ 3.89 µM)	1 µg/mL (≈ 1.95 µM)	8 µg/mL (≈ 15.6 µM)	4 µg/mL (≈ 7.79 µM)	8 µg/mL (≈ 15.6 µM)	0.125 µg/mL (≈ 0.243 µM)	0.0625 µg/mL (≈ 0.122 µM)	1.25 µg/mL (≈ 2.43 µM)		0.156 µg/mL (≈ 0.304 µM)	< 0.02 µg/mL	< 0.02 µg/mL	10 µg/mL (≈ 19.5 µM)	10 µg/mL (≈ 19.5 µM)	1 µg/mL (≈ 1.95 µM)	MIC ([2]; Haemophilus influenzae, WY21): 0.5 µg/mL (≈ 0.973 µM); MIC (Bacillus subtilis 6633; Bacillus subtilis, 6633): 2.5 µg/mL (≈ 4.87 µM); MIC (Staph. aureus Oxford): 10 µg/mL (≈ 19.5 µM); MIC (M. pneumoniae ATCC 15492): 10 µg/mL (≈ 19.5 µM)
C=CCNC(=O)C=C(C)CC1OCC(CC2OC2C(C)C(C)O)C(O)C1O (centres unmarked) [Example 8, Allylamide of monic acid A]	> 100 µg/mL		2.5 µg/mL (≈ 6.52 µM)	2.5 µg/mL (≈ 6.52 µM)	100 µg/mL (≈ 261 µM)	1.25 µg/mL (≈ 3.26 µM)	1.25 µg/mL (≈ 3.26 µM)	0.625 µg/mL (≈ 1.63 µM)	5 µg/mL (≈ 13 µM)	20 µg/mL (≈ 52.2 µM)	0.625 µg/mL (≈ 1.63 µM)	0.156 µg/mL (≈ 0.407 µM)	0.625 µg/mL (≈ 1.63 µM)	0.078 µg/mL (≈ 0.203 µM)	0.078 µg/mL (≈ 0.203 µM)	0.039 µg/mL (≈ 0.102 µM)	0.039 µg/mL (≈ 0.102 µM)	1.25 µg/mL (≈ 3.26 µM)	10 µg/mL (≈ 26.1 µM)	0.05 µg/mL (≈ 0.13 µM)	MIC [3, 17]: 100 µg/mL (≈ 261 µM); MIC (Strep. pneumoniae CN33; [10]): 5 µg/mL (≈ 13 µM)
COC(=O)CCCCCNC(=O)C=C(C)CC1OCC(CC2OC2C(C)C(C)O)C(O)C1O (centres unmarked) [Example 9, 5-Methoxycarbonylpentylamide of monic acid A]	0.2 µg/mL (≈ 0.424 µM)		10 µg/mL (≈ 21.2 µM)				10 µg/mL (≈ 21.2 µM)	10 µg/mL (≈ 21.2 µM)	20 µg/mL (≈ 42.4 µM)	20 µg/mL (≈ 42.4 µM)			0.625 µg/mL (≈ 1.33 µM)	0.312 µg/mL (≈ 0.662 µM)	0.312 µg/mL (≈ 0.662 µM)	0.039 µg/mL (≈ 0.0827 µM)	0.039 µg/mL (≈ 0.0827 µM)	1.25 µg/mL (≈ 2.65 µM)	5 µg/mL (≈ 10.6 µM)	0.2 µg/mL (≈ 0.424 µM)	MIC [3, 17]: < 0.02 µg/mL; MIC (Staph. aureus Oxford): 25 µg/mL (≈ 53 µM); MIC (Staph. aureus Russell): 100 µg/mL (≈ 212 µM); MIC (Strep. pneumoniae CN33; CN33): 2.5 µg/mL (≈ 5.3 µM); MIC (Bord. bronchiseptica BO9; BO9): 10 µg/mL (≈ 21.2 µM); MIC (Strep. uberis SPU 1): 0.625 µg/mL (≈ 1.33 µM); MIC [4]: 0.312 µg/mL (≈ 0.662 µM)
COC(=O)CCNC(=O)C=C(C)CC1OCC(CC2OC2C(C)C(C)O)C(O)C1O (centres unmarked) [Example 10, 2-Methoxycarbonylethylamide of monic acid A]												20 µg/mL (≈ 46.6 µM)									MIC (Bord. bronchiseptica BO9; BO9): 20 µg/mL (≈ 46.6 µM); MIC (Past. multocida PAI): 0.625 µg/mL (≈ 1.46 µM); MIC (Past. haemolytica PA5; PA5): 5 µg/mL (≈ 11.6 µM); MIC (Staph. aureus B4; B4): 80 µg/mL (≈ 186 µM); MIC (Strep. uberis SPU 1): 2.5 µg/mL (≈ 5.82 µM)
C/C(=C\C(=O)OCCCCCCCCC(=O)O)C[C@@H]1OC[C@H](C[C@@H]2O[C@H]2[C@@H](C)[C@H](C)O)[C@@H](O)[C@H]1O [Pseudomonic Acid, reference compound]																					concentration at 5 min (Mouse blood levels): 8200 ng/mL; concentration at 10 min (Mouse blood levels): 3700 ng/mL; concentration at 20 min (Mouse blood levels): 1100 ng/mL; concentration at 0.5 h (Mouse blood levels): 620 ng/mL; concentration at 1 h (Mouse blood levels): < 500 ng/mL; half-life (Mouse blood levels): 5 min
